Here are results for 8 compounds from patent publication US4175123A, “Amino-sugar derivatives, process for their preparation and pharmaceutical composition thereof” (Bayer Aktiengesellschaft, priority 1976, dated 1979).

Assay [1] has as its system glucosidase. Description: Sucrose feeding test: postprandial blood sugar after oral sucrose + glucosidase inhibitor in fasting rats. In kind it is in vivo, rat. The procedure:
(§1) The in vivo activity of the compound was tested on some examples using the experimental arrangement described in the following text.
(§2) Oral administration of starch or sucrose causes a rise in the blood sugar in warm-blooded animals, provided that the carbohydrates are enzymatically degraded in the small intestine to monosaccharides. The inhibition of their enzymatic hydrolysis by glucosidase inhibitors causes a reduced rise in the blood sugar.
(§3) In order to detect the action of glucosidase inhibitors, 6 fasting rats receive perorally, 1 g of broiled starch or 2.5 g of sucrose/kg in the form of an aqueous suspension or in the form of an aqueous solution (starch and sucrose control respectively). An equal number of rats receive the glucosidase inhibitor in the dose indicated, together with the same amount of the carbohydrate concerned. An equal volume of physiological sodium chloride solution is administered orally to a further six rats (control). After administration of the carbohydrate concerned±glucosidae inhibitor, the postprandial change in blood sugar is measured, at the times indicated, in blood from the postorbital venous plexus in an auto-analyser according to the method of W. S. Hoffmann [J biol. Chem 120, 51 (1937)].

Assay [2] concerns glucosidase. Description: Starch feeding test: postprandial blood sugar after oral starch + glucosidase inhibitor in fasting rats. In kind it is in vivo, rat. The conditions noted are these: for Blood sugar ± standard deviation, 45 minutes: starch control 120 ± 7.9, fasting control 102 ± 6.7; for Blood sugar ± standard deviation, 60 minutes: starch control 118 ± 6.9, fasting control 88 ± 7.4. The procedure:
as §1, §2, §3

Where [3] appears, read: 10 mg/kg perorally + 2.5 g sucrose/kg, sucrose control 113 ± 6.5, fasting control 61 ± 13.
The mark [4] stands for this setting: 10 mg/kg perorally + 2.5 g sucrose/kg, sucrose control 116 ± 9.2, fasting control 65 ± 3.9.
The mark [5] stands for this setting: 10 mg/kg perorally + 2.5 g sucrose/kg, sucrose control 104 ± 12, fasting control 66 ± 6.9.
The mark [6] stands for this setting: 10 mg/kg perorally + 2.5 g sucrose/kg, sucrose control 123 ± 8.1, fasting control 76 ± 3.7.
[7] abbreviates: 10 mg/kg perorally + 1 g starch/kg, starch control 146 ± 19, fasting control 82 ± 12.
Where [8] appears, read: 10 mg/kg perorally + 1 g starch/kg, starch control 144 ± 8.9, fasting control 72 ± 10.
The mark [9] stands for this setting: 10 mg/kg perorally + 1 g starch/kg.

Consider `CCO[C@@H]1O[C@H](CO)[C@@H](O[C@H]2O[C@H](C)[C@@H](N[C@H]3C=C(CO)[C@@H](O)[C@H](O)[C@H]3O)[C@H](O)[C@H]2O)[C@H](O)[C@H]1O` [Compound 15, Ethyl-O-{C}-(1→4)-β-D-glucopyranoside], for which the “Blood sugar ± standard deviation, 15 minutes” value in the assay on glucosidase [1] (setting [3]) was found to be 80 ± 6.1 mg/dL. Further, the “Blood sugar ± standard deviation, 30 minutes” value in the assay on glucosidase [1] (setting [4]) was 83 ± 9.4 mg/dL. For the same compound, in the assay with glucosidase [1] (setting [5]), the “Blood sugar ± standard deviation, 45 minutes” value stood at 87 ± 4.8 mg/dL. Besides, in the assay with glucosidase [1] (setting [6]), the “Blood sugar ± standard deviation, 60 minutes” value was 94 ± 13 mg/dL.
For the compound `COC(=O)c1ccc(O[C@@H]2O[C@H](CO)[C@@H](O[C@H]3O[C@H](CO)[C@@H](O[C@H]4O[C@H](C)[C@@H](N[C@H]5C=C(CO)[C@@H](O)[C@H](O)[C@H]5O)[C@H](O)[C@H]4O)[C@H](O)[C@H]3O)[C@H](O)[C@H]2O)cc1` [Compound 6, p-Carbomethoxyphenyl-O-{C}-(1→4)-O-α-D-glcp-(1→5)-β-D-glucopyranoside], the “Blood sugar ± standard deviation, 15 minutes” value in the assay on glucosidase [2] (0.78 mg/kg perorally + 1 g starch/kg, starch control 131 ± 7.2, fasting control 60 ± 4.2) turned out to be 110 ± 6.1 mg/dL; in the assay with glucosidase [1] (0.78 mg/kg perorally + 2.5 g sucrose/kg, sucrose control 128 ± 8.0, fasting control 60 ± 4.6), 96 ± 15 mg/dL. Besides, the “Blood sugar ± standard deviation, 30 minutes” value amounted to 105 ± 10 mg/dL in the assay with glucosidase [2] (0.78 mg/kg perorally + 1 g starch/kg, starch control 113 ± 9.2, fasting control 62 ± 3.4) and 100 ± 3.4 mg/dL in the assay on glucosidase [1] (0.78 mg/kg perorally + 2.5 g sucrose/kg, sucrose control 133 ± 8.7, fasting control 64 ± 3.7). Moreover, the “Blood sugar ± standard deviation, 45 minutes” value in the assay with glucosidase [1] (0.78 mg/kg perorally + 2.5 g sucrose/kg, sucrose control 134 ± 6.1, fasting control 73 ± 7.1) was found to be 106 ± 18 mg/dL. The “Blood sugar ± standard deviation, 60 minutes” value in the assay with glucosidase [1] (0.78 mg/kg perorally + 2.5 g sucrose/kg, sucrose control 119 ± 10, fasting control 66 ± 4.2) worked out at 117 ± 6.5 mg/dL.
As for `C[C@H]1O[C@H](O[C@H]2[C@H](O)[C@@H](O)[C@@H](O[C@H]3[C@H](O)[C@@H](O)[C@H](Oc4ccc([N+](=O)[O-])cc4)O[C@@H]3CO)O[C@@H]2CO)[C@H](O)[C@@H](O)[C@@H]1N[C@H]1C=C(CO)[C@@H](O)[C@H](O)[C@H]1O` [Compound 1, p-Nitrophenyl-O-{C}-(1→4)-O-α-D-glcp-(1→4)-β-D-glucopyranoside], the “Blood sugar ± standard deviation, 15 minutes” value in the assay on glucosidase [2] (0.86 mg/kg perorally + 1 g starch/kg, starch control 131 ± 7.2, fasting control 60 ± 4.2) worked out at 93 ± 6.4 mg/dL; in the assay with glucosidase [1] (0.86 mg/kg perorally + 2.5 g sucrose/kg, sucrose control 128 ± 8.0, fasting control 60 ± 4.6), 103 ± 6.4 mg/dL. Further, the “Blood sugar ± standard deviation, 30 minutes” value was 84 ± 12 mg/dL with glucosidase [2] (0.86 mg/kg perorally + 1 g starch/kg, starch control 113 ± 9.2, fasting control 62 ± 3.4) and 110 ± 10 mg/dL with glucosidase [1] (0.86 mg/kg perorally + 2.5 g sucrose/kg, sucrose control 133 ± 8.7, fasting control 64 ± 3.7). In the assay on glucosidase [1] (0.86 mg/kg perorally + 2.5 g sucrose/kg, sucrose control 134 ± 6.1, fasting control 73 ± 7.1), the “Blood sugar ± standard deviation, 45 minutes” value came out at 108 ± 13 mg/dL. Besides, in the assay on glucosidase [1] (0.86 mg/kg perorally + 2.5 g sucrose/kg, sucrose control 119 ± 10, fasting control 66 ± 4.2), the “Blood sugar ± standard deviation, 60 minutes” value was found to be 107 ± 11 mg/dL.
Consider `C[C@H]1O[C@H](O[C@H]2[C@H](O)[C@@H](O)[C@@H](O[C@H]3[C@H](O)[C@@H](O)[C@H](Oc4cccc(O)c4)O[C@@H]3CO)O[C@@H]2CO)[C@H](O)[C@@H](O)[C@@H]1N[C@H]1C=C(CO)[C@@H](O)[C@H](O)[C@H]1O` [Compound 3, m-Hydroxyphenyl-O-{C}-(1→4)-O-α-D-glcp-(1→4)-β-D- glucopyranoside], for which the “Blood sugar ± standard deviation, 15 minutes” value in the assay with glucosidase [2] (0.92 mg/kg perorally + 1 g starch/kg, starch control 131 ± 7.2, fasting control 60 ± 4.2) is 89 ± 8.0 mg/dL; in the assay on glucosidase [1] (0.92 mg/kg perorally + 2.5 g sucrose/kg, sucrose control 128 ± 8.0, fasting control 60 ± 4.6) it was 97 ± 10 mg/dL. Moreover, the “Blood sugar ± standard deviation, 30 minutes” value worked out at 97 ± 13 mg/dL with glucosidase [2] (0.92 mg/kg perorally + 1 g starch/kg, starch control 113 ± 9.2, fasting control 62 ± 3.4) and 108 ± 4.2 mg/dL in the assay with glucosidase [1] (0.92 mg/kg perorally + 2.5 g sucrose/kg, sucrose control 133 ± 8.7, fasting control 64 ± 3.7). Moreover, the “Blood sugar ± standard deviation, 45 minutes” value with glucosidase [1] (0.92 mg/kg perorally + 2.5 g sucrose/kg, sucrose control 134 ± 6.1, fasting control 73 ± 7.1) was determined as 112 ± 15 mg/dL. Further, the “Blood sugar ± standard deviation, 60 minutes” value in the assay with glucosidase [1] (0.92 mg/kg perorally + 2.5 g sucrose/kg, sucrose control 119 ± 10, fasting control 66 ± 4.2) is recorded as 111 + 11 mg/dl.
Regarding `C[C@H]1O[C@H](O[C@H]2[C@H](O)[C@@H](O)[C@@H](O[C@H]3[C@H](O)[C@@H](O)[C@H](Oc4ccccc4)O[C@@H]3CO)O[C@@H]2CO)[C@H](O)[C@@H](O)[C@@H]1N[C@H]1C=C(CO)[C@@H](O)[C@H](O)[C@H]1O` [Compound 2, Phenyl-O-{C}-(1→4)-O-α-D-glcp-(1→4)-β-D-glucopyranoside], the “Blood sugar ± standard deviation, 15 minutes” value with glucosidase [2] (setting [7]) was 102 ± 10 mg/dL; with glucosidase [1] (setting [3]) it was 79 ± 4.1 mg/dL. In addition, the “Blood sugar ± standard deviation, 30 minutes” value turned out to be 73 ± 9.1 mg/dL in the assay with glucosidase [2] (setting [8]) and 86 ± 10 mg/dL with glucosidase [1] (setting [4]). Also, the “Blood sugar ± standard deviation, 45 minutes” value in the assay with glucosidase [2] (setting [9]) was found to be 100 ± 6.5 mg/dL; in the assay with glucosidase [1] (setting [5]), 74 ± 7.2 mg/dL. In addition, the “Blood sugar ± standard deviation, 60 minutes” value in the assay with glucosidase [2] (setting [9]) came to 108 ± 9.3 mg/dL; in the assay on glucosidase [1] (setting [6]) it was 71 ± 15 mg/dL.
Consider `COC(=O)c1cccc(O[C@@H]2O[C@H](CO)[C@@H](O[C@H]3O[C@H](CO)[C@@H](O[C@H]4O[C@H](C)[C@@H](N[C@H]5C=C(CO)[C@@H](O)[C@H](O)[C@H]5O)[C@H](O)[C@H]4O)[C@H](O)[C@H]3O)[C@H](O)[C@H]2O)c1` [Compound 4, m-Carbomethoxyphenyl-O-{C}-(1→4)-O-α-D-glcp-(1→4)-β-D-glucopyranoside], for which the “Blood sugar ± standard deviation, 15 minutes” value came out at 99 ± 8.1 mg/dL in the assay with glucosidase [2] (1.56 mg/kg perorally + 1 g starch/kg, starch control 131 ± 7.2, fasting control 60 ± 4.2) and 95 ± 7.0 mg/dL in the assay with glucosidase [1] (1.56 mg/kg perorally + 2.5 g sucrose/kg, sucrose control 128 ± 8.0, fasting control 60 ± 4.6). The “Blood sugar ± standard deviation, 30 minutes” value amounted to 97 ± 10 mg/dL with glucosidase [2] (1.56 mg/kg perorally + 1 g starch/kg, starch control 113 ± 9.2, fasting control 62 ± 3.4) and 112 ± 5.5 mg/dL with glucosidase [1] (1.56 mg/kg perorally + 2.5 g sucrose/kg, sucrose control 133 ± 8.7, fasting control 64 ± 3.7). In addition, the “Blood sugar ± standard deviation, 45 minutes” value in the assay on glucosidase [1] (1.56 mg/kg perorally + 2.5 g sucrose/kg, sucrose control 134 ± 6.1, fasting control 73 ± 7.1) is 104 ± 6.7 mg/dL. Moreover, in the assay on glucosidase [1] (1.56 mg/kg perorally + 2.5 g sucrose/kg, sucrose control 119 ± 10, fasting control 66 ± 4.2), the “Blood sugar ± standard deviation, 60 minutes” value was 115 ± 7.0 mg/dL.
On to `C[C@H]1O[C@H](O[C@H]2[C@H](O)[C@@H](O)[C@H](Oc3ccccc3)O[C@@H]2CO)[C@H](O)[C@@H](O)[C@@H]1N[C@H]1C=C(CO)[C@@H](O)[C@H](O)[C@H]1O` [Compound 13, Phenyl-O-C-(1→4)-β-D-glucopyranoside], for which the “Blood sugar ± standard deviation, 15 minutes” value in the assay on glucosidase [2] (setting [7]) was found to be 70 ± 8.3 mg/dL; with glucosidase [1] (setting [3]) it was 79 ± 6.8 mg/dL. In addition, the “Blood sugar ± standard deviation, 30 minutes” value was found to be 40 ± 6.8 mg/dL in the assay with glucosidase [2] (setting [8]) and 80 ± 5.4 mg/dL in the assay with glucosidase [1] (setting [4]). Besides, the figures for the “Blood sugar ± standard deviation, 45 minutes” value in the assay on glucosidase [2] (setting [9]) and with glucosidase [1] (setting [5]) were 89 ± 9.0 mg/dL and 85 ± 16 mg/dL, respectively. Also, the figures for the “Blood sugar ± standard deviation, 60 minutes” value in the assay on glucosidase [2] (setting [9]) and with glucosidase [1] (setting [6]) were 100 ± 4.6 mg/dL and 86 ± 2.0 mg/dL, respectively.
For the compound `C[C@H]1O[C@H](O[C@H]2[C@H](O)[C@@H](O)[C@@H](O[C@@H]([C@H](O)[C@@H](O)CO)[C@H](O)CO)O[C@@H]2CO)[C@H](O)[C@@H](O)[C@@H]1N[C@H]1C=C(CO)[C@@H](O)[C@H](O)[C@H]1O` [Compound 22], the “Blood sugar ± standard deviation, 15 minutes” value in the assay on glucosidase [1] (1.54 mg/kg perorally + 2.5 g sucrose/kg, sucrose control 134 ± 13, fasting control 71 ± 3.7) came to 80 ± 3.7 mg/dL. Also, the “Blood sugar ± standard deviation, 30 minutes” value in the assay on glucosidase [1] (1.54 mg/kg perorally + 2.5 g sucrose/kg, sucrose control 116 ± 20, fasting control 70 ± 5.3) was determined as 79 ± 5.2 mg/dL. The “Blood sugar ± standard deviation, 45 minutes” value in the assay with glucosidase [1] (1.54 mg/kg perorally + 2.5 g sucrose/kg, sucrose control 125 ± 8.6, fasting control 77 ± 5.5) is 86 ± 4.5 mg/dL. For the same compound, the “Blood sugar ± standard deviation, 60 minutes” value in the assay on glucosidase [1] (1.54 mg/kg perorally + 2.5 g sucrose/kg, sucrose control 112 ± 15, fasting control 78 ± 7.3) is 86 ± 11 mg/dL.
